Measurements from US11787785B2 (NOVARTIS AG, priority 2021, dated 2023).

Target: T1, WIZ protein (HiBit-WIZ fusion protein) (Homo sapiens, UniProt O95785+Q96SW2)
T1 construct: expressed in transfected cells
Test: Quantification of WIZ protein levels in HiBit tag fusion protein assay (WIZ HiBit assay in 293T cells)
Assay type: cell-based
Design: remaining activity / Dmax: dose or concentration left out as unconfirmed
Conditions: for Dmax at 25 µM: 100 − Amax; for Dmax at 25 µM / remaining activity at 25 µM: 293T cells; for remaining activity at 25 µM: DMSO-normalized, curve-fitted percentage of WIZ-HiBit remaining at 25 uM; for DC50: WIZ HiBit assay in 293T cells, 10-point, 5-fold dose response, highest concentration 25 μM, about 18 hours, read-out: WIZ AC50
In short: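 Luminescence after LgBit complementation quantified remaining HiBit-WIZ in lysates of single-copy stable 293T lines. Cells dosed ~18 h at 37 °C with 10-point, 5-fold dilutions (highest 25 μM); DMSO set to 100%, fitted curve gave % remaining at 25 μM (Amax).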

[1] = HEK-293T, read-out: % degradation of WIZ (100 − Amax)

T1 sequence (O95785 whole entry, the tested form may be a part): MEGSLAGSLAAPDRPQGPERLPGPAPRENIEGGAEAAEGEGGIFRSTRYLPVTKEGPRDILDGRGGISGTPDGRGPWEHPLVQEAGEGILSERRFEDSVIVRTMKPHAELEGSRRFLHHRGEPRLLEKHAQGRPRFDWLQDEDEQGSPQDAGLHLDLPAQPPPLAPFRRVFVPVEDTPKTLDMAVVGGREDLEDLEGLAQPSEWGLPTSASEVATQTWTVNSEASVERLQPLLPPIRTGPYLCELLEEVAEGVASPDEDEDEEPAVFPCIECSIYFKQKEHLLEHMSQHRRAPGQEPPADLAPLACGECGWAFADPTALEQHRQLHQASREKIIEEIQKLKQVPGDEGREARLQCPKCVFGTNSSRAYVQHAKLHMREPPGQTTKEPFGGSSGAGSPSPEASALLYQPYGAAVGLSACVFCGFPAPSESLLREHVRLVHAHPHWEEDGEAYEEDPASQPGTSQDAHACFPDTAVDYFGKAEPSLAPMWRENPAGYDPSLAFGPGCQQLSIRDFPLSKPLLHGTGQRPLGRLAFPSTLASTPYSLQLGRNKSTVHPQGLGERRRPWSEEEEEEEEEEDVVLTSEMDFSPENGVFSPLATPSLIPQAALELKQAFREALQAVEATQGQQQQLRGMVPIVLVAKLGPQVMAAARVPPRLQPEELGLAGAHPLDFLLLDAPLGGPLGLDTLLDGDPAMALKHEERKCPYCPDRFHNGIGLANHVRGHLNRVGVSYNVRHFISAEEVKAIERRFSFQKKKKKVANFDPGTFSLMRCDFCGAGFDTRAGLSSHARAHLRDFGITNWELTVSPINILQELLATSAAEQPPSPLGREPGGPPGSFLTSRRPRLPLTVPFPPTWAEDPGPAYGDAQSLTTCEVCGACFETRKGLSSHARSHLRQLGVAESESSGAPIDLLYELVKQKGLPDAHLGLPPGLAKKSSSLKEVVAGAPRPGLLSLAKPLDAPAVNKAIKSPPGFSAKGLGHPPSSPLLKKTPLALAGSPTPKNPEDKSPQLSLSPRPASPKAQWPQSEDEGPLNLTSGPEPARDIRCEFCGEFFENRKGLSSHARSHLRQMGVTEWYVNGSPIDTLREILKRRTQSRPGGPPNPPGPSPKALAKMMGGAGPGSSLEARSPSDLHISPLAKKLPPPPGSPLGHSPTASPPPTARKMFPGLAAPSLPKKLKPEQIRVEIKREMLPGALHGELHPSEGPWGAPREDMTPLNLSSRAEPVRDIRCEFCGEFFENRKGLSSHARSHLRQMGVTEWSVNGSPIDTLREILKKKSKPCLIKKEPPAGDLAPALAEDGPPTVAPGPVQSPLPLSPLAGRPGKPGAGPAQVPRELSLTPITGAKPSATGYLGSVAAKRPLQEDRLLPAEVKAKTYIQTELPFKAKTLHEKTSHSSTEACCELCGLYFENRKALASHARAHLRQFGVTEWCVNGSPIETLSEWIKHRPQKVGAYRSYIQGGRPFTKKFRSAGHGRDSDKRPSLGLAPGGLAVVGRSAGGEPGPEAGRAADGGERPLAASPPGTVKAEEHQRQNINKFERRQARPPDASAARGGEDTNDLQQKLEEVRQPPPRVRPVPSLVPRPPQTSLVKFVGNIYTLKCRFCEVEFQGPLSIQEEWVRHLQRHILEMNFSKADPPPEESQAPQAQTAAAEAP
T1 sequence (Q96SW2 whole entry, the tested form may be a part): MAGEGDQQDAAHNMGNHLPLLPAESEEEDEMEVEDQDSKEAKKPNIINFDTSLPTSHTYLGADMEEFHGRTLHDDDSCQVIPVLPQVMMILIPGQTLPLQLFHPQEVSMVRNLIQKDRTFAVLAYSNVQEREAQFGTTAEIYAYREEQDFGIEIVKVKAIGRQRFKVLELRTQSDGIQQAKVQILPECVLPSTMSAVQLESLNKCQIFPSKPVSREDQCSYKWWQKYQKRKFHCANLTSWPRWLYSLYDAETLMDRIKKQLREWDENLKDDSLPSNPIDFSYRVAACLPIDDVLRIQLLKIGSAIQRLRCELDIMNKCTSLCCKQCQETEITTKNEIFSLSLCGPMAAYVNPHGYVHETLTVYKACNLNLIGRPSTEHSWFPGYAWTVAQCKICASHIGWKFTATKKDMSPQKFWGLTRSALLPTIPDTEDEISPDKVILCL
T1 sequence (Q16531 whole entry partner, the tested form may be a part): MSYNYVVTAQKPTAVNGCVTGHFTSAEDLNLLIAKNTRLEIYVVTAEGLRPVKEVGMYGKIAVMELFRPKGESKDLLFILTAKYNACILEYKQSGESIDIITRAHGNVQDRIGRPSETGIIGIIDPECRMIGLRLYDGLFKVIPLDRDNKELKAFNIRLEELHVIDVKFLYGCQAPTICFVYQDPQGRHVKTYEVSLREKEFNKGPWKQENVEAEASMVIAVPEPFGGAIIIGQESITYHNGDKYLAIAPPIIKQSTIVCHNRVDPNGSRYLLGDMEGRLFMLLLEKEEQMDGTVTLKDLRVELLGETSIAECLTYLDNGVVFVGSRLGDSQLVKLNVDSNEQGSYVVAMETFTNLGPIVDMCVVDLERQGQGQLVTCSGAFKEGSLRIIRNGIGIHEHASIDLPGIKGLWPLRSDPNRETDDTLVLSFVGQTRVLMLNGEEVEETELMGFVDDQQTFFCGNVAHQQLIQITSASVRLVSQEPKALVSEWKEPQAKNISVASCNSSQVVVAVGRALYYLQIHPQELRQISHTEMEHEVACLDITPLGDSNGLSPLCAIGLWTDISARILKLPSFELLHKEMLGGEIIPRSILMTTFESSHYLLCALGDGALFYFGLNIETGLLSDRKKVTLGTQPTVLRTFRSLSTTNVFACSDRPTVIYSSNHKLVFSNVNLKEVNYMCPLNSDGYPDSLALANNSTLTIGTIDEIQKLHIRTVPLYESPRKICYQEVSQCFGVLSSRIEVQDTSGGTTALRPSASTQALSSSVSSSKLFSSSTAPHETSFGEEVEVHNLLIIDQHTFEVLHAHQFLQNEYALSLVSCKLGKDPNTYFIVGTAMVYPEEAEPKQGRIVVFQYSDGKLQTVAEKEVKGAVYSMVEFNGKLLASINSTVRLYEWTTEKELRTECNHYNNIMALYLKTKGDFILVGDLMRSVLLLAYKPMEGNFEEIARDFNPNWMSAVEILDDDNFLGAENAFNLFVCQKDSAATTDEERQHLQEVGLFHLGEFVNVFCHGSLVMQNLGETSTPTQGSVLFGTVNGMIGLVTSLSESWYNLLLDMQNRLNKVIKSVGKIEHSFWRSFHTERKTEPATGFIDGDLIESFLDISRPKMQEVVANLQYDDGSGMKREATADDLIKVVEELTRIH

Dmax at 25 µM [1] [%]	remaining activity at 25 µM (HEK-293T, read-out: WIZ Amax) [%]	DC50 [nM]	Structure (SMILES)	Dmax [1] [%]	remaining activity (HEK-293T, read-out: WIZ Amax) [%]
78	22	181	O=C1CCN(c2cnn3ccc(CC4CCN(S(=O)(=O)Cc5ccccc5)CC4)cc23)C(=O)N1 [Example 88]		
82	18	23	O=C1CCN(c2cnn3ccc(CC4CCN(CC5CC(F)(F)C5)CC4)cc23)C(=O)N1 [Example 32, 1-(5-((1-((3,3-difluorocyclobutyl)methyl)piperidin-4-yl)methyl)pyrazolo[1,5-a]pyridin-3-yl)dihydropyrimidine-2,4(1H,3H)-dione]		
68	32	77	CC(C)CN1CC[C@@H](Cc2ccn3ncc(N4CCC(=O)NC4=O)c3c2)C[C@H]1C [Example 77]		
0	100	> 25000	CC(C)CN1CCN(Cc2ccn3ncc(N4CCC(=O)NC4=O)c3c2)C[C@@H]1C(C)C [Example 229, (S)-1-(5-((4-isobutyl-3-isopropylpiperazin-1-yl)methyl)pyrazolo[1,5-a]pyridin-3-yl)dihydropyrimidine-2,4(1H,3H)-dione]		
0	100	> 25000	CC(C)CN1CC[C@@H](Cc2ccn3ncc(-n4cc(C5CC5)c(=O)[nH]c4=O)c3c2)C[C@@H]1C [Example 354, 5-cyclopropyl-1-(5-(((2S,4R)-1-isobutyl-2-methylpiperidin-4-yl)methyl)pyrazolo[1,5-a]pyridin-3-yl)pyrimidine-2,4(1H,3H)-dione]		
77	23	144	O=C1CCN(c2cnn3ccc(CC4CCN(Cc5ccc(F)cc5)CC4)cc23)C(=O)N1 [Example 23, 1-(5-((1-(4-fluorobenzyl)piperidin-4-yl)methyl)pyrazolo[1,5-a]pyridin-3-yl)dihydropyrimidine-2,4(1H,3H)-dione]		
68	32	283	CC(C)(O)CN1CCC(Cc2ccn3ncc(N4CCC(=O)NC4=O)c3c2)CC1 [Example 106, 1-(5-((1-(2-hydroxy-2-methylpropyl)piperidin-4-yl)methyl)pyrazolo[1,5-a]pyridin-3-yl)dihydropyrimidine-2,4(1H,3H)-dione]		
60	40	956	CC[C@H]1CN(Cc2ccn3ncc(N4CCC(=O)NC4=O)c3c2)CCN1CC1CCOCC1 [Example 227, (S)-1-(5-((3-ethyl-4-((tetrahydro-2H-pyran-4-yl)methyl)piperazin-1-yl)methyl)pyrazolo[1,5-a]pyridin-3-yl)dihydropyrimidine-2,4(1H,3H)-dione]		
78	22	41	C[C@@H]1C[C@@H](Cc2ccn3ncc(N4CCC(=O)NC4=O)c3c2)CCN1CC1CCOCC1 [Example 154]		
83	17	399	C[C@H]1CN(Cc2ccn3ncc(N4CCC(=O)NC4=O)c3c2)CCN1C1CC2(C1)CN(S(C)(=O)=O)C2 [Example 337, (S)-1-(5-((3-methyl-4-(2-(methylsulfonyl)-2-azaspiro[3.3]heptan-6-yl)piperazin-1-yl)methyl)pyrazolo[1,5-a]pyridin-3-yl)dihydropyrimidine-2,4(1H,3H)-dione]		
84	16	51	CC(C)CCN1CCN(Cc2ccn3ncc(N4CCC(=O)NC4=O)c3c2)C[C@@H]1C [Example 204]		
76	24	561	CCCN1CCN(Cc2ccn3ncc(N4CCC(=O)NC4=O)c3c2)CC1 [Example 163]		
69	31	58	Cc1ccc(CN2CCC(Cc3ccn4ncc(N5CCC(=O)NC5=O)c4c3)CC2)cn1 [Example 46, 1-(5-((1-((6-methylpyridin-3-yl)methyl)piperidin-4-yl)methyl)pyrazolo[1,5-a]pyridin-3-yl)dihydropyrimidine-2,4(1H,3H)-dione]		
51	49	242	O=C1CCN(c2cnn3ccc(CC4CCN(S(=O)(=O)NC5CCCC5)CC4)cc23)C(=O)N1 [Example 298, N-cyclopentyl-4-((3-(2,4-dioxotetrahydropyrimidin-1(2H)-yl)pyrazolo[1,5-a]pyridin-5-yl)methyl)piperidine-1-sulfonamide]		
80	20	115	O=C1CCN(c2cnn3ccc(CN4CCN(CCC5CCOCC5)CC4)cc23)C(=O)N1 [Example 161]		
86	14	100	CC(C)CN1CCC(C(C)c2ccn3ncc(N4CCC(=O)NC4=O)c3c2)CC1 (stereo not drawn) [Example 267, 1-(5-(1-(1-isobutylpiperidin-4-yl)ethyl)pyrazolo[1,5-a]pyridin-3-yl)dihydropyrimidine-2,4(1H,3H)-dione]		
47	53	582	CC(C)S(=O)(=O)N1CCN(Cc2ccn3ncc(N4CCC(=O)NC4=O)c3c2)CC1 [Example 185, 1-(5-((4-(isopropylsulfonyl)piperazin-1-yl)methyl)pyrazolo[1,5-a]pyridin-3-yl)dihydropyrimidine-2,4(1H,3H)-dione]		
79	21	76	CC(C)CN1CCN(Cc2ccn3ncc(N4CCC(=O)NC4=O)c3c2)CC1 [Example 186, 1-(5-((4-isobutylpiperazin-1-yl)methyl)pyrazolo[1,5-a]pyridin-3-yl)dihydropyrimidine-2,4(1H,3H)-dione]		
86	14	2	O=C1CCN(c2cnn3ccc(CC4CCN(C[C@H]5C[C@@H](F)[C@@H](F)C5)CC4)cc23)C(=O)N1 [Example 301, 1-(5-((1-(((1r,3R,4S)-3,4-difluorocyclopentyl)methyl)piperidin-4-yl)methyl)pyrazolo[1,5-a]pyridin-3-yl)dihydropyrimidine-2,4(1H,3H)-dione]		
49	51	1020	O=C1CCN(c2cnn3ccc(CC4CCCNCC4)cc23)C(=O)N1 (stereo not drawn) [Example 269, 1-(5-(azepan-4-ylmethyl)pyrazolo[1,5-a]pyridin-3-yl)dihydropyrimidine-2,4(1H,3H)-dione]		
79	21	44	CC(C)(C)CN1CCC(Cc2ccn3ncc(N4CCC(=O)NC4=O)c3c2)CC1 [Example 110]		

Structure (SMILES)	Dmax at 25 µM [1] [%]	remaining activity at 25 µM (HEK-293T, read-out: WIZ Amax) [%]	DC50 [nM]	Dmax [1] [%]	remaining activity (HEK-293T, read-out: WIZ Amax) [%]
CC(C)CN1[C@@H]2CC[C@H]1CC(Cc1ccn3ncc(N4CCC(=O)NC4=O)c3c1)C2 (stereo partly drawn) [Example 67, 1-(5-(((1R,5S)-8-isobutyl-8-azabicyclo[3.2.1]octan-3-yl)methyl)pyrazolo[1,5-a]pyridin-3-yl)dihydropyrimidine-2,4(1H,3H)-dione]	61	39	561		
CC(=O)N1CCC(Cc2ccn3ncc(N4CCC(=O)NC4=O)c3c2)CC1 [Example 104, 1-(5-((1-acetylpiperidin-4-yl)methyl)pyrazolo[1,5-a]pyridin-3-yl)dihydropyrimidine-2,4(1H,3H)-dione]			7360	62	38
